In US11884671B2, “Purinone compounds and their use in treating cancer” (ASTRAZENECA AB, priority 2018, dated 2024):

Experiments:
JAK3 = JAK3 (Homo sapiens (Human), UniProt P52333); assay: JAK3 enzyme assay (Z'-LYTE); type: biochemical; details: 10 μM ATP; arithmetic mean of two or more experiments
Procedure: (§1) The inhibitory activity of compounds against AURKA, AURKB, JAK1, JAK2 and JAK3 was determined in Z′-LYTE® assays run by ThermoFisher Scientific as part of their SelectScreen® Biochemical Kinase Profiling Service. The Z′-LYTE® biochemical assay format employs a fluorescence-based, coupled-enzyme format and is based on the differential sensitivity of phosphorylated and non-phosphorylated peptides to proteolytic cleavage. The peptide substrate is labeled with two fluorophores—one at each end—that make up a FRET pair. In the primary reaction, the kinase transfers the gamma-phosphate of ATP to a single tyrosine, serine or threonine residue in a synthetic FRET-peptide. In the secondary reaction, a site-specific protease recognises and cleaves non-phosphorylated FRET-peptides. Phosphorylation of FRET-peptides suppresses cleavage by the Development Reagent. Cleavage disrupts FRET between the donor (i.e., coumarin) and acceptor (i.e., fluorescein) fluorophores on the FRET-peptide, whereas uncleaved, phosphorylated FRET-peptides maintain FRET. A ratiometric method, which calculates the ratio (the Emission Ratio) of donor emission to acceptor emission after excitation of the donor fluorophore at 400 nm, is used to quantitate reaction progress. Both cleaved and uncleaved FRET-peptides contribute to the fluorescence signals and therefore to the Emission Ratio. The extent of phosphorylation of the FRET-peptide can be calculated from the Emission Ratio.
(§2) 10 point three-fold dilution compound concentration-response curves, with a top concentration of 10 μM were generated from 10 mM stocks of compound solubilised in DMSO. All assays were performed in black, non-binding, low volume Corning 384-well plates (cat. #4514, Corning), in a total reaction volume of 10 μL and 1% (v/v) final DMSO concentration. […] The kinase reaction was then quenched by the addition of 5 μL of Development Reagent (ThermoFisher Scientific proprietary). […] IC50 values were calculated using XLfit software (IDBS Ltd, Surrey, UK), with the curve fit to model number 205 (sigmoidal dose-response model).
JAK3: The 2×JAK3/Tyr 06 (ThermoFisher Scientific proprietary) mixture was prepared in 50 mM HEPES pH 7.5. 0.01% BRIJ-35, 10 mM MgCl2, 1 mM EGTA. […] After the 1 hour Kinase Reaction incubation, 5 μL of a 1:128 dilution of Development Reagent was added.

AURKB (Aurora B) = AURKB (Aurora B) (Homo sapiens (Human), UniProt Q96GD4); assay: Aurora-B enzyme assay (Z'-LYTE); type: biochemical; details: 75 μM ATP; arithmetic mean of two or more experiments
Procedure: as §1, §2
Aurora B (AurB): The 2×AURKB (Aurora B)/Ser/Thr 01 (ThermoFisher Scientific proprietary) mixture was prepared in 50 mM HEPES pH 7.5, 0.01% BRIJ-35, 10 mM MgCl2, 1 mM EGTA. […] After the 1 hour Kinase Reaction incubation, 5 μL of a 1:4096 dilution of Development Reagent was added.

JAK1 = JAK1 (Homo sapiens (Human), UniProt P23458); assay: JAK1 enzyme assay (Z'-LYTE); type: biochemical; details: 75 μM ATP; arithmetic mean of two or more experiments
Procedure: as §1, §2
JAK1: The 2×JAK/Tyr 06 (ThermoFisher Scientific proprietary) mixture was prepared in 50 mM HEPES pH 6.5, 0.01% BRIJ-35, 10 mM MgCl2, 1 mM EGTA, 0.02% NaN3. […] After the 1 hour Kinase Reaction incubation, 5 μL of a 1:128 dilution of Development Reagent was added.

TTK = TTK (Homo sapiens (Human), UniProt P33981); assay: TTK enzyme assay (LanthaScreen Eu Kinase Binding); details: arithmetic mean of two or more experiments
Procedure: The inhibitory activity of compounds against TTK was determined in a LanthaScreen® Eu Kinase Binding assay run by ThermoFisher Scientific as part of their SelectScreen® Biochemical Kinase Profiling Service. The LanthaScreen® Eu Kinase Binding assay format uses binding of an Alexa Fluor® conjugate or “tracer” to a kinase, which is detected by addition of a Eu-labeled anti-tag antibody. […] The degree of FRET measured in the assay is used to determine the binding of a compound.
10 point three-fold dilution compound concentration-response curves, with a top concentration of 10 μM were generated from 10 mM stocks of compound solubilised in DMSO. All assays were performed in white, low volume Greiner 384-well plates (cat. #784207, Greiner), in a total reaction volume of 16 μL and 1% (v/v) final DMSO concentration. […] Plates were then read using a fluorescence plate reader. IC50 values were calculated using XLfit software (IDBS Ltd, Surrey, UK), with the curve fit to model number 205 (sigmoidal dose-response model).

JAK2 = JAK2 (Homo sapiens (Human), UniProt O60674); assay: JAK2 enzyme assay (Z'-LYTE); type: biochemical; details: 25 μM ATP; arithmetic mean of two or more experiments
Procedure: as §1, §2
JAK2: The 2×JAK2/Tyr 06 (ThermoFisher Scientific proprietary) mixture was prepared in 50 mM HEPES pH 7.5, 0.01% BRIJ-35, 10 mM MgCl2, 1 mM EGTA. […] After the 1 hour Kinase Reaction incubation, 5 μL of a 1:128 dilution of Development Reagent was added.

AURKA (Aurora A) = AURKA (Aurora A) (Homo sapiens (Human), UniProt O14965); assay: Aurora-A enzyme assay (Z'-LYTE); type: biochemical; details: 10 μM ATP; arithmetic mean of two or more experiments
Procedure: as §1, §2
Aurora A (AurA): The 2×AURKA (Aurora A)/Ser/Thr 01 (ThermoFisher Scientific proprietary) mixture was prepared in 50 mM HEPES pH 7.5, 0.01% BRIJ-35, 10 mM MgCl2, 1 mM EGTA. […] After the 1 hour Kinase Reaction incubation, 5 μL of a 1:4096 dilution of Development Reagent was added.

DNAPK = DNAPK (Homo sapiens (Human), UniProt P78527); assay: DNAPK cellular potency assay (DNA-PK cell), pS2056-DNAPK ELISA in irradiated A549 cells; type: cell-based; details: 8 Gy radiation, arithmetic mean of two or more experiments, read-out: DNA-PK cell pIC50 (converted)
Procedure: The DNAPK cell ELISA assay was performed in the A549 cell line. A549 cells were cultured in cell media composed of MEM-F12 (Minimum Essential Medium F12 Sigma #D6421), 10% (v/v) Foetal Calf Serum and 1% (v/v) 200 mM L-Glutamine. […] The following day the Greiner ELISA plates were washed 3× with PBS-T and blocked with 3% BSA/PBS for 2 h, before a further 3× wash with PBS-T.
The cell plates were then incubated for 1 h at 37° C. before receiving a radiation dose of 8 Gy (XRAD 320, table height 65). The cells were incubated for a further 1 h before removal of cell media. […] Cell lysates ([…]) were transferred to the DNAPK antibody-coated ELISA plates using a CyBio Felix liquid handling platform, and ELISA plates were incubated at 4° C. overnight.
The following day, ELISA plates were washed 3× with PBS-T and dispensed with in-house pS2056-DNAPK antibody (0.5 μg/mL in 3% BSA/PBS) at 20 ul/well.
The fluorescence intensity of individual wells was determined using a PerkinElmer EnVision plate reader.
Data was analysed and IC50 values were calculated using Genedata Screener® software (Genedata, Inc., Basel, Switzerland).

Discrete PK Dog = details: beagle, iv, 0.5 mg/kg
Discrete PK Rat = type: in vivo, han wistar rats; details: Han Wistar, plasma, iv, read-out: volume of distribution (V)

Chain of AURKB (Aurora B) (Q96GD4 whole entry): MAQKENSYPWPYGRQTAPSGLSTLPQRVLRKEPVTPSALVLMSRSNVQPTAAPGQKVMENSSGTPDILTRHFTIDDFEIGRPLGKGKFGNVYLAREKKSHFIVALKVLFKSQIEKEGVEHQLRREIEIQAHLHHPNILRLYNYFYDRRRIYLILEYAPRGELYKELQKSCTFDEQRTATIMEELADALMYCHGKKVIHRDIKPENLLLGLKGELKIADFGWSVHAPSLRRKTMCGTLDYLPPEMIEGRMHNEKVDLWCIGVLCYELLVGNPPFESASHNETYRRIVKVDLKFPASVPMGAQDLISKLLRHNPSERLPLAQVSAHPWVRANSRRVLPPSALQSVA
Chain of JAK2 (O60674 whole entry): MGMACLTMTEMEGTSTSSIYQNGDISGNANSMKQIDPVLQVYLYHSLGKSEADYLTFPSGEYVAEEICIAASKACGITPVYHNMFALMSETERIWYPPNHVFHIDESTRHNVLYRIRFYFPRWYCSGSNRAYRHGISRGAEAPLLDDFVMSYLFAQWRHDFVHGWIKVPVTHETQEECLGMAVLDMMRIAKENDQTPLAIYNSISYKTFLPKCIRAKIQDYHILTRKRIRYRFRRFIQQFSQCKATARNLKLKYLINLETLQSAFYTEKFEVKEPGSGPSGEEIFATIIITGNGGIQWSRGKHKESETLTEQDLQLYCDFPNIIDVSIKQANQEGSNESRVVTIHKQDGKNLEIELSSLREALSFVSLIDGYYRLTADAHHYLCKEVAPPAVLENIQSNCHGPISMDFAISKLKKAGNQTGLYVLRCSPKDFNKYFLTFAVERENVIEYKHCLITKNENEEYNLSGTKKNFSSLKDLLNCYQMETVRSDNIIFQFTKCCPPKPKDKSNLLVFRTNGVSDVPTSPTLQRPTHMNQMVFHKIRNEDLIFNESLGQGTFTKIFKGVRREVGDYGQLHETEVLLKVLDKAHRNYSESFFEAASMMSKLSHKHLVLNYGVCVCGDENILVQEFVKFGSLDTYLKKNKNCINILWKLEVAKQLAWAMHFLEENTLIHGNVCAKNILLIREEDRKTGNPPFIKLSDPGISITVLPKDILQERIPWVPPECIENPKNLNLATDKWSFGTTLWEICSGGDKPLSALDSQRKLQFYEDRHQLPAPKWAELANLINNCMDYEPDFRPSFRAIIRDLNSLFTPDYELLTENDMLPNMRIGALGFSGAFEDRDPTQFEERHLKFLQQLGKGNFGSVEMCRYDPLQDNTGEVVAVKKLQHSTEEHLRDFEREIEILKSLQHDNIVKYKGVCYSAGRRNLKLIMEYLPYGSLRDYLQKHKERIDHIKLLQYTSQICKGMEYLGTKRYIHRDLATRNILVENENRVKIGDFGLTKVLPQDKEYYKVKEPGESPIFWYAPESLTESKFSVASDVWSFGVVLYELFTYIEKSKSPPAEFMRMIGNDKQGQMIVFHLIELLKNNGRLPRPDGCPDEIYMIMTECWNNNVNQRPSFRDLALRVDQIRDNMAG
Chain of JAK3 (P52333 whole entry): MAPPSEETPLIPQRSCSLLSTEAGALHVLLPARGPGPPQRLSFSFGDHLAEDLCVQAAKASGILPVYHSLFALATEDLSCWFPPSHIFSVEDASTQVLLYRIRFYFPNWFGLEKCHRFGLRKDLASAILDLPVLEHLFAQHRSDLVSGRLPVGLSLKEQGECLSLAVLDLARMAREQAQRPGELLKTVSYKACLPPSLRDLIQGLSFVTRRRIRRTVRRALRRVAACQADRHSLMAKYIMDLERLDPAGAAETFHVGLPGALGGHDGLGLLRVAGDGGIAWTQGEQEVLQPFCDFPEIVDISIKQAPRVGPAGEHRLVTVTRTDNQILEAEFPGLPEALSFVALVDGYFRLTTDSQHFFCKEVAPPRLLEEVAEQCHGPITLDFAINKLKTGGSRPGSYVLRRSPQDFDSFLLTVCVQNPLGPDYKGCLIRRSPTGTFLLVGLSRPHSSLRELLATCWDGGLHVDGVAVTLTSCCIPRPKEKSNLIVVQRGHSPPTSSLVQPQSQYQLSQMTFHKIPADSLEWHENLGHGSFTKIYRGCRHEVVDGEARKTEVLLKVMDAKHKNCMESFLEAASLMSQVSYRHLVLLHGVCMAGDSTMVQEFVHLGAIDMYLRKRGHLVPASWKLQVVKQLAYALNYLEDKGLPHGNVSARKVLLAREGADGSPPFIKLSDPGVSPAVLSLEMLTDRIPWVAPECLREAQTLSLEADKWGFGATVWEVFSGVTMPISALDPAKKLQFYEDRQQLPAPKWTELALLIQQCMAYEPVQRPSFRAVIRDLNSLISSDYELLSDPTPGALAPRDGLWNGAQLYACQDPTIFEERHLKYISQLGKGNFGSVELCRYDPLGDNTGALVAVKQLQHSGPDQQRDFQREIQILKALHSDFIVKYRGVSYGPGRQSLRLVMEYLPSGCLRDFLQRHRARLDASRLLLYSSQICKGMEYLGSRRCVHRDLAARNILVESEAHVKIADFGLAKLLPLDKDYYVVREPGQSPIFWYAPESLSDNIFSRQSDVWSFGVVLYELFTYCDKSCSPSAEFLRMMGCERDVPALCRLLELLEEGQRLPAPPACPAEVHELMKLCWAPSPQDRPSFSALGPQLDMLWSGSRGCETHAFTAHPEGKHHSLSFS
Chain of AURKA (Aurora A) (O14965 whole entry): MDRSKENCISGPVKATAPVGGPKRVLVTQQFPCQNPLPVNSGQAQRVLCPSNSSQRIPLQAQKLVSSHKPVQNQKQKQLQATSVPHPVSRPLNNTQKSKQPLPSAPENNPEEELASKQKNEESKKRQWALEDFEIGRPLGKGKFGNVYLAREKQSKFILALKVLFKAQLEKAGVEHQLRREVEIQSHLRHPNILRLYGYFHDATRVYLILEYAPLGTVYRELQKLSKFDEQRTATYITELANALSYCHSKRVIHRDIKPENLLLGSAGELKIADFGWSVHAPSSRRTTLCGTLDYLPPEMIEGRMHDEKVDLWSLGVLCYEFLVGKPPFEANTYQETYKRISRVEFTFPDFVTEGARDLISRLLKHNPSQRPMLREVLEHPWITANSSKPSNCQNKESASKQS
Chain of TTK (P33981 whole entry): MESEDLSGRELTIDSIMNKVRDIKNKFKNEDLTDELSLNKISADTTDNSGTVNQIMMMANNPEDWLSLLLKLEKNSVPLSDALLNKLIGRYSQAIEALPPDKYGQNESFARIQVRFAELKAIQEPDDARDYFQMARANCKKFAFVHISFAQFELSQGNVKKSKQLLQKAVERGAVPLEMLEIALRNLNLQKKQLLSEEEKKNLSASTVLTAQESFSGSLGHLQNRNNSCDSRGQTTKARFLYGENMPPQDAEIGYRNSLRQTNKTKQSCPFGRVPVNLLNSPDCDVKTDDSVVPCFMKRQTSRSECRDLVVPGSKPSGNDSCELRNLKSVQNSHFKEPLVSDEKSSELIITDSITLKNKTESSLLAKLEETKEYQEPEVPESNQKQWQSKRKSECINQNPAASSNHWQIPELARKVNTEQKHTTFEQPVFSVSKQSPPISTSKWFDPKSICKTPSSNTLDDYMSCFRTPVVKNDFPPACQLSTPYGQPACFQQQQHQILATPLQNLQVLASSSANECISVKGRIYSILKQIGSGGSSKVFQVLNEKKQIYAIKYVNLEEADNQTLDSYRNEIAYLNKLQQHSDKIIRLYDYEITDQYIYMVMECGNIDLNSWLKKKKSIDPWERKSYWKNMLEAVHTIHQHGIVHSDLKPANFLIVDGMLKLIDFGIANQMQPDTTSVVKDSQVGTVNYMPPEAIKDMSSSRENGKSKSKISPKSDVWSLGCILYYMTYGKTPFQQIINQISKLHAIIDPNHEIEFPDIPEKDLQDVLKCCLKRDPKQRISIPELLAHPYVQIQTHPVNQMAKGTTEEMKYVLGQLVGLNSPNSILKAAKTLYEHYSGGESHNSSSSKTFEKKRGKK
Chain of JAK1 (P23458 whole entry): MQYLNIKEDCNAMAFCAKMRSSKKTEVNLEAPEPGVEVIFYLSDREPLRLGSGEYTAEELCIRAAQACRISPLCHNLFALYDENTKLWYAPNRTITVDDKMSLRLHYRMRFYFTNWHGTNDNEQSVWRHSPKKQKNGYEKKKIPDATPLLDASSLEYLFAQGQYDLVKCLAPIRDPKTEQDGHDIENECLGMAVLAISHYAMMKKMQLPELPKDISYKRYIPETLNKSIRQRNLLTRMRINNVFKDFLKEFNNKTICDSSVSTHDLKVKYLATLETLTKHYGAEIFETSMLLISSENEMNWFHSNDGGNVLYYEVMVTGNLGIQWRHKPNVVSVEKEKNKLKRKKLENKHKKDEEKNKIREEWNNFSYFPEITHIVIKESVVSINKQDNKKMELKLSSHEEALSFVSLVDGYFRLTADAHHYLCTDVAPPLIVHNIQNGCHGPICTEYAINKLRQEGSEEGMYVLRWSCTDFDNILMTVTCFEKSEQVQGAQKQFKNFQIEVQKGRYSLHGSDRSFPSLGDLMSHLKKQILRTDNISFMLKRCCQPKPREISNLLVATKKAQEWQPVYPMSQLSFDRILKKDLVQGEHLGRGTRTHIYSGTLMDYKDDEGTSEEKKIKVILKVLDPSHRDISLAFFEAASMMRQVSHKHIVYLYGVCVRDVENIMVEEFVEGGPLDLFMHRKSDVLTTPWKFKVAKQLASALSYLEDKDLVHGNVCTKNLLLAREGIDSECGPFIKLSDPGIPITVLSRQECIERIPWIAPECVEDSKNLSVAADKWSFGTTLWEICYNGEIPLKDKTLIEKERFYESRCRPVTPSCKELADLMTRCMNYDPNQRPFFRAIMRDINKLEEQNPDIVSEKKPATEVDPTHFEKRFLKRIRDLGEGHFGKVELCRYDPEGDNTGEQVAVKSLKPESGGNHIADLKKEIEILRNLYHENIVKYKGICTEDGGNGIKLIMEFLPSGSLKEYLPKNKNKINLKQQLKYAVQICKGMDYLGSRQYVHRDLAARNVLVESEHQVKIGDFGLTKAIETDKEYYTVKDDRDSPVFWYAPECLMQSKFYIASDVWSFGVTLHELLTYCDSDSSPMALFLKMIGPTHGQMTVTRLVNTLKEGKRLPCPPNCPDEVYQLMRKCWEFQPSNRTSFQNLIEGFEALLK

Row | Compound | JAK3 enz pIC50 (JAK3) | AurB enz pIC50 (AURKB (Aurora B)) | JAK1 enz pIC50 (JAK1) | TTK enz pIC50 (TTK) | JAK2 enz pIC50 (JAK2) | AurA enz pIC50 (AURKA (Aurora A)) | IC50 (DNAPK) | further results
1 | Cc1cc2nnccc2cc1Nc1ncc2c(n1)n([C@H]1CC[C@@](C)(O)CC1)c(=O)n2C [Example 16, 9-((1s,4s)-4-hydroxy-4-methylcyclohexyl)-7-methyl-2-((7-methylcinnolin-6-yl)amino)-7,9-dihydro-8H-purin-8-one] |  |  |  |  |  |  | 15.8 nM | 
2 | Cc1cc2ncccc2cc1Nc1ncc2c(n1)n([C@@H]1CCN(C)C1)c(=O)n2C [Example 41, (R)-7-methyl-9-(1-methylpyrrolidin-3-yl)-2-((7-methylquinolin-6-yl)amino)-7,9-dihydro-8H-purin-8-one] | <5 | <5 | <5 | <5.1 | <5 | <5 |  | 
3 | Cc1cc2ncccc2cc1Nc1ncc2c(n1)n(C1CCN(C)CC1)c(=O)n2C [Example 44, 7-methyl-9-(1-methylpiperidin-4-yl)-2-((7-methylquinolin-6-yl)amino)-7,9-dihydro-8H-purin-8-one] |  |  |  |  |  |  |  | Vd (Discrete PK Dog; plasma): 7.8 L/kg; Vd (Discrete PK Rat): 3.4 L/kg
4 | Cc1cc2ncccc2cc1Nc1ncc2c(n1)n([C@H]1CC[C@@](C)(O)CC1)c(=O)n2C [Example 14, 9-((1s,4s)-4-hydroxy-4-methylcyclohexyl)-7-methyl-2-((7-methylquinolin-6-yl)amino)-7,9-dihydro-8H-purin-8-one] |  |  |  |  |  |  | 10 nM | 
5 | Cc1cc2nnccc2cc1Nc1ncc2c(n1)n(C1CCN(C)CC1)c(=O)n2C [Example 43, 7-methyl-2-((7-methylcinnolin-6-yl)amino)-9-(1-methylpiperidin-4-yl)-7,9-dihydro-8H-purin-8-one] | <5 | <5 | <5 | <5 | <5 | <5 |  | 
6 | Cc1cc2nnccc2cc1Nc1ncc2c(n1)n([C@H]1CC[C@](C)(O)CC1)c(=O)n2C [Example 17, 9-((1r,4r)-4-hydroxy-4-methylcyclohexyl)-7-methyl-2-((7-methylcinnolin-6-yl)amino)-7,9-dihydro-8H-purin-8-one] |  |  |  |  |  |  | 100 nM | 
7 | Cc1cc2ncccc2cc1Nc1ncc2c(n1)n([C@@H]1CNC[C@H]1F)c(=O)n2C [Example 52, 9-((3R,4R)-4-fluoropyrrolidin-3-yl)-7-methyl-2-((7-methylquinolin-6-yl)amino)-7,9-dihydro-8H-purin-8-one] |  |  |  |  |  |  |  | Vd (Discrete PK Dog; in vivo): 5.4 L/kg; Vd (Discrete PK Rat): 1.65 L/kg
8 | Cc1cc2ncccc2cc1Nc1ncc2c(n1)n([C@H]1CCN(C)C1)c(=O)n2C [Example 42, (S)-7-methyl-9-(1-methylpyrrolidin-3-yl)-2-((7-methylquinolin-6-yl)amino)-7,9-dihydro-8H-purin-8-one] | <5 | <5 | <5 | <5.1 | <5 | <5 |  | 

Continued, in another order:

Row | JAK3 enz pIC50 (JAK3) | AurB enz pIC50 (AURKB (Aurora B)) | JAK1 enz pIC50 (JAK1) | TTK enz pIC50 (TTK) | JAK2 enz pIC50 (JAK2) | AurA enz pIC50 (AURKA (Aurora A)) | IC50 (DNAPK) | Compound | further results
9 | <5 | <5 | <5 | 6.4 | <5 | <5 |  | Cc1cc2nnccc2cc1Nc1ncc2c(n1)n(C1CCOCC1)c(=O)n2C [Example 29, 7-methyl-2-((7-methylcinnolin-6-yl)amino)-9-(tetrahydro-2H-pyran-4-yl)-7,9-dihydro-8H-purin-8-one] | 
10 | <5 | <5 | <5 | 6.4 | <5 | <5 |  | Cc1cc2ncccc2cc1Nc1ncc2c(n1)n(C1CCOCC1)c(=O)n2C [Example 30, 7-methyl-2-((7-methylquinolin-6-yl)amino)-9-(tetrahydro-2H-pyran-4-yl)-7,9-dihydro-8H-purin-8-one] | 
11 |  |  |  |  |  |  | 15.8 nM | Cc1cc2ncccc2cc1Nc1ncc2c(n1)n([C@H]1CC[C@](C)(O)CC1)c(=O)n2C [Example 15, 9-((1r,4r)-4-hydroxy-4-methylcyclohexyl)-7-methyl-2-((7-methylquinolin-6-yl)amino)-7,9-dihydro-8H-purin-8-one] | 
